Source: US12180198B2, “Ribocil C antibiotics effective for Gram-negative pathogens” (THE BOARD OF TRUSTEES OF THE UNIVERSITY OF ILLINOIS, priority 2018, dated 2024)
Where a name gives a salt, the structure may show the parent alone. Read-outs that look alike come from different tables or passages of the source.

What was measured:
E. coli BAA-2469 [1] = assay: Bioactivity against exemplary strains of bacteria (Table 5A); assay type: cell-based; parameters: unit not given here; conditions: Strain 2: E. coli BAA-2469
K. pneumoniae BAA-2146 = assay: as above; assay type: cell-based; conditions: Strain 4: K. pneumoniae BAA-2146
A. baumannii BAA-2093 = assay: as above; assay type: cell-based; conditions: Strain 3: A. baumannii BAA-2093
[2] = test system: E. coli strains with intact outer membranes; assay: MIC, micro-dilution broth method (text summary); assay type: cell-based; conditions: E. coli strains with intact outer membranes
Protocol: FIG. 2. Antimicrobial activity of Debio-1452 and derivatives. MIC values were determined using the micro-dilution broth method as outlined by the Clinical and Laboratory Standards Institute (clsi.org/). All experiments were performed in biological triplicate.
(§1) Antimicrobial susceptibility tests. Susceptibility testing was performed in biological triplicate, using the micro-dilution broth method as outlined by the Clinical and Laboratory Standards Institute. Bacteria were cultured with cation-adjusted Muller-Hinton broth (Sigma-Aldrich, Cat #90922) in round-bottom 96-well plates (Corning, Cat #3788). Human serum (pooled gender, 0.2 μm filtered) was purchased from BioIVT (Hicksville, NY).

K. pneumoniae BAA-2470 = assay: MIC, micro-dilution broth method; assay type: cell-based; conditions: Klebsiella pneumoniae, BAA2470; K. pneumoniae BAA-2470; read-out: MIC
Protocol: (§2) Compounds were evaluated against a panel of Gram-positive and Gram-negative organisms. MIC values were determined using the micro-dilution broth method as outlined by the Clinical and Laboratory Standards Institute (clsi.org/) and are listed in […]. All experiments were performed in biological triplicate.
as §1

K. pneumoniae M67198 = assay: MIC, micro-dilution broth method; assay type: cell-based; conditions: Klebsiella pneumoniae; K. pneumoniae M67198; read-out: MIC
Protocol: as §2, §1

K. pneumoniae S47889 = assay: MIC, micro-dilution broth method; assay type: cell-based; conditions: Klebsiella pneumoniae; K. pneumoniae S47889; read-out: MIC
Protocol: as §2, §1

A. baumannii F19521 = assay: MIC, micro-dilution broth method; assay type: cell-based; conditions: Acinetobacter baumannii; A. baumannii F19521; read-out: MIC
Protocol: as §2, §1

E. coli AR-0349 = assay: MIC, micro-dilution broth method; assay type: cell-based; conditions: Escherichia coli, AR0349; E. coli AR-0349; read-out: MIC
Protocol: as §2, §1

S. aureus ATCC 29213 = assay: MIC, micro-dilution broth method; assay type: cell-based; conditions: Staphylococcus aureus, ATCC29213, S. aureus ATCC 29213
Protocol: as §2, §1

A. baumannii W41979 = assay: MIC, micro-dilution broth method; assay type: cell-based; conditions: Acinetobacter baumannii; A. baumannii W41979; read-out: MIC
Protocol: as §2, §1

K. pneumoniae BAA-1705 = assay: MIC, micro-dilution broth method; assay type: cell-based; conditions: Klebsiella pneumoniae, BAA1705; K. pneumoniae BAA-1705; read-out: MIC
Protocol: as §2, §1

E. coli MG1655 = assay: MIC, micro-dilution broth method; assay type: cell-based; conditions: Escherichia coli
Protocol: as §2, §1

A. baumannii WO22 = assay: MIC, micro-dilution broth method; assay type: cell-based; conditions: Acinetobacter baumannii; A. baumannii WO22; read-out: MIC
Protocol: as §2, §1

E. cloacae BAA-2468 = assay: MIC, micro-dilution broth method; assay type: cell-based; conditions: Enterobacter cloacae, BAA2468; E. cloacae BAA-2468; read-out: MIC
Protocol: as §2, §1

E. coli ΔrfaC JW3596 = assay: MIC, micro-dilution broth method; assay type: cell-based; conditions: Escherichia coli
Protocol: as §2, §1

E. coli BAA-2471 = assay: MIC, micro-dilution broth method; assay type: cell-based; conditions: Escherichia coli, BAA2471; E. coli BAA-2471; read-out: MIC
Protocol: as §2, §1

E. coli AR-0495 = assay: MIC, micro-dilution broth method; assay type: cell-based; conditions: Escherichia coli, AR0495; E. coli AR-0495; read-out: MIC
Protocol: as §2, §1

A. baumannii KB357 = assay: MIC, micro-dilution broth method; assay type: cell-based; conditions: Acinetobacter baumannii; A. baumannii KB357; read-out: MIC
Protocol: as §2, §1

K. pneumoniae BAA-2473 = assay: MIC, micro-dilution broth method; assay type: cell-based; conditions: Klebsiella pneumoniae, BAA2473; K. pneumoniae BAA-2473; read-out: MIC
Protocol: as §2, §1

K. pneumoniae BAA-2472 = assay: MIC, micro-dilution broth method; assay type: cell-based; conditions: Klebsiella pneumoniae, BAA2472; K. pneumoniae BAA-2472; read-out: MIC
Protocol: as §2, §1

K. pneumoniae BAA-2342 = assay: MIC, micro-dilution broth method; assay type: cell-based; conditions: Klebsiella pneumoniae, BAA2342; K. pneumoniae BAA-2342; read-out: MIC
Protocol: as §2, §1

E. coli AR-0346 = assay: MIC, micro-dilution broth method; assay type: cell-based; conditions: Escherichia coli, AR0346; E. coli AR-0346; read-out: MIC
Protocol: as §2, §1

E. coli BAA-2469 [3] = assay: MIC, micro-dilution broth method; assay type: cell-based; conditions: Escherichia coli, BAA2469; E. coli BAA-2469; read-out: MIC
Protocol: as §2, §1

A. baumannii KB343 = assay: MIC, micro-dilution broth method; assay type: cell-based; conditions: Acinetobacter baumannii; A. baumannii KB343; read-out: MIC
Protocol: as §2, §1

E. coli AR-0493 = assay: MIC, micro-dilution broth method; assay type: cell-based; conditions: Escherichia coli, AR0493; E. coli AR-0493; read-out: MIC
Protocol: as §2, §1

K. pneumoniae M67297 = assay: MIC, micro-dilution broth method; assay type: cell-based; conditions: Klebsiella pneumoniae; K. pneumoniae M67297; read-out: MIC
Protocol: as §2, §1

A. baumannii KB304 = assay: MIC, micro-dilution broth method; assay type: cell-based; conditions: Acinetobacter baumannii; A. baumannii KB304; read-out: MIC
Protocol: as §2, §1

A. baumannii M13100 = assay: MIC, micro-dilution broth method; assay type: cell-based; conditions: Acinetobacter baumannii; A. baumannii M13100; read-out: MIC
Protocol: as §2, §1

K. pneumoniae AR-0347 = assay: MIC, micro-dilution broth method; assay type: cell-based; conditions: Klebsiella pneumoniae, AR0347; K. pneumoniae AR-0347; read-out: MIC
Protocol: as §2, §1

K. pneumoniae S20595 = assay: MIC, micro-dilution broth method; assay type: cell-based; conditions: Klebsiella pneumoniae; K. pneumoniae S20595; read-out: MIC
Protocol: as §2, §1

K. pneumoniae M14723 = assay: MIC, micro-dilution broth method; assay type: cell-based; conditions: Klebsiella pneumoniae; K. pneumoniae M14723; read-out: MIC
Protocol: as §2, §1

E. cloacae BAA-2341 = assay: MIC, micro-dilution broth method; assay type: cell-based; conditions: Enterobacter cloacae, BAA2341; E. cloacae BAA-2341; read-out: MIC
Protocol: as §2, §1

E. cloacae S28901.1 = assay: MIC, micro-dilution broth method; assay type: cell-based; conditions: Enterobacter cloacae; E. cloacae S28901.1; read-out: MIC
Protocol: as §2, §1

E. coli ΔtolC JW5503 = assay: MIC, micro-dilution broth method; assay type: cell-based; conditions: Escherichia coli
Protocol: as §2, §1

H. sapiens IMR-90 = assay: Cell viability, Alamar Blue; assay type: cell-based; conditions: Homo sapiens, IMR-90, read-out: % inhibition at 30 μM
Protocol: Cell culture. IMR90 cells were obtained from ATCC. IMR90 cells were grown in EMEM with 10% fetal bovine serum (Gemini Benchmark, Cat #100-106), 100 U/mL penicillin, and 100 μg/mL streptomycin. All cells were cultured at 37° C. in a 5% CO2 environment. Media was prepared by the University of Illinois School of Chemical Sciences Cell Media Facility. Sex and age of cell lines: IMR90 ([…]).
Cell viability. Cells seeded (IMR90: 5,000 cells/well) a 96-well plate (Greiner Bio-One, Cat #655180) and were allowed to attach overnight. Cells were treated with investigational compounds in DMSO (30 μM, 1% DMSO final, 100 μL/well). Raptinal (100 μM) was used as a dead control. After 24 h post-treatment, media was exchanged with compound-free media. After 72 h post-treatment, cell viability was assessed using the Alamar Blue method. Stock Alamar Blue solution [10 μL, 440 μM resazurin (Sigma-Aldrich, Cat #R7017) in sterile 1×PBS] was added to each well, and plate was incubated […]. Conversion of Alamar Blue was measured with plate reader (SpectraMax M3, Molecular Devices) by fluorescence (ex 555 nm, em 585 nm, cutoff 570 nm, autogain). Percent death was determined by normalizing to DMSO-treated cells and raptinal-treated cells.

Mouse MTD = conditions: mice, IP injection, single dose, monitored 2 weeks
Protocol: The protocol was approved by the IACUC at the University of Illinois at Urbana-Champaign (Protocol Number: 16144). In these studies, 10- to 12-week-old female C57BL/6 mice purchased from Charles River were used. The maximum tolerate dose (MTD) of a single compound was determined first. […] For multiple doses, the compound was given by daily IP for 5 consecutive days and mice were monitored for signs of toxicity for 1 month. MTD was the highest dosage with acceptable toxicity (e.g., <20% weight loss). Single dose MTDs were initially determined.

SMILES: NCc1cnc(-n2cnc(CN3CCCC(c4nc(O)cc(-c5cccs5)n4)C3)c2)nc1 (stereo not drawn) [R13a]
- Bioactivity (E. coli BAA-2469 [1]): 16
- Bioactivity (K. pneumoniae BAA-2146): 64
- Bioactivity (A. baumannii BAA-2093): >128

SMILES: CCN(CC)CCNc1nc(/C=C/c2ccc(Cl)cc2)nc2cc3ccccc3cc12 [Z3, Zantrin Z3, reference compound]
- Bioactivity (E. coli BAA-2469 [1]): >64
- Bioactivity (K. pneumoniae BAA-2146): >64
- Bioactivity (A. baumannii BAA-2093): 32

SMILES: NCCNc1nc(/C=C/c2ccc(Cl)cc2)nc2cc3ccccc3cc12 [Z7, (E)-N^1-(2-(4-chlorostyryl)benzo[g]quinazolin-4-yl)ethane-1,2-diamine]
- Bioactivity (E. coli BAA-2469 [1]): 4
- Bioactivity (K. pneumoniae BAA-2146): >32
- Bioactivity (A. baumannii BAA-2093): 2

SMILES: Cc1ccc2nc(/C=C/c3ccc(Cl)cc3)nc(NCCN)c2c1 [Z14, (E)-N^1-(2-(4-chlorostyryl)-6-methylquinazolin-4-yl)ethane-1,2-diamine]
- Bioactivity (E. coli BAA-2469 [1]): 8
- Bioactivity (K. pneumoniae BAA-2146): 64
- Bioactivity (A. baumannii BAA-2093): 8

SMILES: Cc1c(CN(C)C(=O)/C=C/c2cnc3c(c2)CC(CN)C(=O)N3)oc2ccccc12.Cl (stereo not drawn) [compound 2, (E)-3-(6-(aminomethyl)-7-oxo-5,6,7,8-tetrahydro-1,8-naphthyridin-3-yl)-N-methyl-N-((3-methylbenzofuran-2-yl)methyl)acrylamide hydrochloride]
- antibacterial activity (in words) [2]: active
- MIC (K. pneumoniae BAA-2470): 4 µg/mL
- MIC (K. pneumoniae M67198): 32 µg/mL
- MIC (K. pneumoniae S47889): 8 µg/mL
- MIC (A. baumannii F19521): 16 µg/mL
- MIC (E. coli AR-0349): 2 µg/mL
- MIC (S. aureus ATCC 29213; read-out: MIC): 0.03 µg/mL
- MIC (A. baumannii W41979): 16 µg/mL
- MIC (K. pneumoniae BAA-1705): 16 µg/mL
- MIC (E. coli MG1655; E. coli MG1655, read-out: MIC): 8 µg/mL
- MIC (A. baumannii WO22): > 64 µg/mL
- MIC (E. cloacae BAA-2468): 8 µg/mL
- MIC (E. coli ΔrfaC JW3596): 0.5 µg/mL
- MIC (E. coli BAA-2471): 4 µg/mL
- MIC (E. coli AR-0495): 2 µg/mL
- MIC (A. baumannii KB357): > 64 µg/mL
- MIC (K. pneumoniae BAA-2473): 16 µg/mL
- MIC (K. pneumoniae BAA-2472): 16 µg/mL
- MIC (K. pneumoniae BAA-2342): 16 µg/mL
- MIC (E. coli AR-0346): 4 µg/mL
- MIC (E. coli BAA-2469 [3]): 2 µg/mL
- MIC (A. baumannii KB343): > 64 µg/mL
- MIC (E. coli AR-0493): 4 µg/mL
- MIC (K. pneumoniae M67297): 32 µg/mL
- MIC (A. baumannii KB304): 64 µg/mL
- MIC (A. baumannii M13100): 16 µg/mL
- MIC (K. pneumoniae AR-0347): 8 µg/mL
- MIC (K. pneumoniae S20595): 16 µg/mL
- MIC (K. pneumoniae M14723): 16 µg/mL
- MIC (E. cloacae BAA-2341): 16 µg/mL
- MIC (E. cloacae S28901.1): 8 µg/mL
- MIC (E. coli ΔtolC JW5503): 0.125 µg/mL

SMILES: Cc1c(CN(C)C(=O)/C=C/c2cnc3c(c2)CC(CCN)C(=O)N3)oc2ccccc12 (stereo not drawn) [compound 3, (E)-3-(6-(aminoethyl)-7-oxo-5,6,7,8-tetrahydro-1,8-naphthyridin-3-yl)-N-methyl-N-((3-methylbenzofuran-2-yl)methyl)acrylamide hydrochloride]
- inhibition at 30 µM (H. sapiens IMR-90): 12%
- antibacterial activity (in words) [2]: active
- MIC (S. aureus ATCC 29213): 0.125 µg/mL
- MIC (E. coli MG1655; MG1655): 8 µg/mL
- MIC (E. coli ΔrfaC JW3596): 0.5 µg/mL
- MIC (E. coli ΔtolC JW5503): 0.062 µg/mL
- single dose well tolerated (Mouse MTD): 100 mg/kg
